Results: patent publication EP0312291A2, “Di-or tripeptide renin inhibitors containing lactam conformational restriction in ACHPA” (Merck & Co., Inc., priority 1987, dated 1989)

Target: T1, human plasma renin (Homo sapiens, UniProt P00797)
T1 construct: from tissue; host or cells: human plasma
T1 sequence (P00797 67-406): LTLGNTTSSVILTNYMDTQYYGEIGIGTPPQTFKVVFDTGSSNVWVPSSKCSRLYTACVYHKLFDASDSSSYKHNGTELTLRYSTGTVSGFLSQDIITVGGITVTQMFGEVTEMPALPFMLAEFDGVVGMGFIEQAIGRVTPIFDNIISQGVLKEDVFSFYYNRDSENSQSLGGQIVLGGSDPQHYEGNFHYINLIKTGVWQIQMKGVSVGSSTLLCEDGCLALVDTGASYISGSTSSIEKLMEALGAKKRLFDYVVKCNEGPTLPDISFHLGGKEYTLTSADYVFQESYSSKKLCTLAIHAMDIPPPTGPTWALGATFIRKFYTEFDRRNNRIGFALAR
Assay: Inhibition of human plasma renin, in vitro method of Boger et al., J. Med. Chem. (1985) 28, 1779
Format: biochemical
Procedure: Inhibition of human plasma renin was assayed using the in vitro method described by Boger, et. al., J. Med. Chem. (1985) 28, 1779.

IC50 [nM] | Molecule
47 | CN1CCC[C@@H]([C@H](O)[C@H](CC2CCCCC2)NC(=O)[C@H](Cc2c[nH]cn2)NC(=O)[C@H](Cc2ccccc2)NC(=O)OC(C)(C)C)C1=O [Example 3A, Boc-Phe-His-(ACHP)-1-Methyl-2-Piperidinone]
203 | CN1CCCC[C@@H]([C@H](O)[C@H](CC2CCCCC2)NC(=O)[C@H](Cc2c[nH]cn2)NC(=O)[C@H](Cc2ccccc2)NC(=O)OC(C)(C)C)C1=O [Example 3C, Boc-Phe-His-(ACHP)-1-Methylcaprolactam]
31 | Boc-Phe-His-(ACHP)-4-Methyl-3-Morpholinone [Example 3B]
